# In patent publication US9526680B2, “Method for searching for malodor control agent, malodor control agent, and malodor control method” (Kao Corporation, priority 2010, dated 2016):
# Legend:
# [1] = biological target: T1, OR2W1 (Homo sapiens, UniProt Q9Y3N9); test: Luciferase reporter gene assay, OR2W1 expressed in HEK293 cells; type: cell-based; conditions: response to hexanoic acid; test substance added together with hexanoic acid; HEK293
# T1 construct: expressed in transfected cells; host or cells: HEK293
# T1 sequence (Q9Y3N9 1-320): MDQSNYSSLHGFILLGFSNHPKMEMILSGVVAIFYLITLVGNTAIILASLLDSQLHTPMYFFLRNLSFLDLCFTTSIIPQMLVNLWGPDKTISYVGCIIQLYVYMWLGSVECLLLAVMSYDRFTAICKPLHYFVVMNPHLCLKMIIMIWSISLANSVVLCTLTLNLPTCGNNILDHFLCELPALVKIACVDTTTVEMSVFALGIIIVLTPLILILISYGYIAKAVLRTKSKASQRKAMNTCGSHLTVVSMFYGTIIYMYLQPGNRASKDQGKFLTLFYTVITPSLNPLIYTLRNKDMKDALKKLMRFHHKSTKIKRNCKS
# Method: (§1) Cloning of human olfactory receptors was performed based on the sequence information registered in GenBank, through PCR with human genomic DNA female (G1521: Promega) as a template. Each of the genes amplified through PCR was inserted into a pENTR vector (Invitrogen) according to an instruction manual. Then, the gene-inserted vector was digested with NotI and AscI, and the obtained fragments were inserted into NotI and AscI sites located downstream of the Flag-Rho tag sequence in the pME18S vector.
# (§2) Each of the 350 types of human olfactory receptors was expressed in HEK293 cells. A reaction solution having a composition shown in Table 2 was prepared on a clean bench, and left to stand for 15 minutes. The solution was dispensed to each well of a 96-well plate (BD). Subsequently, […] cells (100 μL, 3×10^5 cells/cm^2) were seeded in each well and cultured for 24 hours in an incubator at 37° C. and under 5% CO2 conditions.
# (§3) The olfactory receptor expressed in HEK293 cell was conjugated with cell-intrinsic Gas to activate adenylate cyclase, and thereby the level of intracellular cAMP was increased. For the measurement of the response to odor in this study, the luciferase reporter gene assay was used, in which an increase in the amount of intracellular cAMP was monitored by using the emission value originating from firefly luciferase gene (fluc2P-CRE-hygro) as an indicator. Furthermore, a gene product obtained by fusing renilla luciferase gene in the downstream of CMV promoter (hRluc-CMV) was simultaneously introduced, and this was used as an internal standard for correcting an error in the transgenesis efficiency or the number of cells. The medium was removed from the culture prepared in the above-described section 3) by using a Pipetman, and 75 μl of a solution containing an odor substance (1 mM hexanoic acid or 300 μM nonanoic acid) prepared in CD293 medium (Invitrogen) was added thereto. The cells were cultured for 4 hours in a CO2 incubator, and the luciferase gene was sufficiently expressed in the cells. For the measurement of luciferase activity, the measurement was carried out by using a Dual-Glo™ luciferase assay system (Promega) according to the operation manual of the product. A value calculated by dividing the emission value, derived from a firefly luciferase induced by the stimulation with an odor substance, by the emission value in cells that were not-stimulated with an odor substance, was designated as a fold increase, and used as an index of response intensity.
# (§4) OR2W1, OR10A6, OR51E1, OR51I2, and OR51L1 were respectively expressed in HEK293 cells by the same method as that used in Example 1, and a luciferase assay was carried out. In the luciferase assay, hexanoic acid was used as the odorous substance, and test substances were added together with hexanoic acid. The response of the olfactory receptors to hexanoic acid was measured, and a decrease in the receptor response to the addition of test substances was evaluated.
# (§5) The inhibition ratios of the receptor response to test substances were calculated as follows. The emission value (Y) obtained from the cells in which the same receptors were introduced but no odor stimulation was conducted, was subtracted from the emission value derived from firefly luciferase (X) induced by odor stimulation with hexanoic acid alone. Similarly, the emission value (Y) obtained from the cells in which no odor stimulation was conducted, was subtracted from the emission value (Z) caused by stimulation with a mixture of hexanoic acid and a test substance. By the following calculation formula, the inhibitory activity of the test substance to receptor response was calculated based on the increment of the emission value (X−Y) caused by stimulation of hexanoic acid alone. Multiple independent experiments were performed in duplicate, and the average of each experiment was obtained. Inhibition ratio (%)={1−(Z−Y)/(X−Y)}×100 […]
# [2] = Sensory evaluation test of hexanoic acid odor inhibition; type: in vivo; conditions: for Intensity of odor: hexanoic acid odor, malodor alone rated as 5, 0 to 10 points, test substance diluted 100 times with propylene glycol, three panelists; for Inhibition of hexanoic acid odor (in words): sensory test, test substance diluted 100 times with propylene glycol (FIG. 5, Table 4)
# Method: Cotton balls were introduced into a glass bottle (Hakuyo Glass Co., Ltd. No. 11, capacity 110 ml), and hexanoic acid diluted 100 times with propylene glycol, nonanoic acid diluted 10 times with propylene glycol, or isovaleric acid diluted 1000 times with propylene glycol, as a malodor, and a test substance were added dropwise in an amount of […] to the cotton balls. The glass bottle was left to stand overnight at room temperature, and the odor molecules were sufficiently volatilized in the glass bottle. A sensory evaluation test was carried out by a panel of three panelists (5 panelists for isovaleric acid), and while the intensity of odor in the case of adding dropwise the malodor alone was rated as 5, the intensity of the malodor in the case of incorporating a test substance was evaluated on the basis of a system of 20 grades from 0 point to 10 points (0.5 points per grade).
# Regarding the test substance, florhydral (Givaudan SA), bourgeonal (Givaudan SA), hydroxycitronellal (Givaudan SA, International Flavors & Fragrances, Inc., and the like), 4-isopropylcyclohexanecarbaldehyde (synthesized according to a method described in JP-A-2-188549), 4-(2-methoxyphenyl)-2-methyl-2-butanol (JP-A-9-111281), florosa (Givaudan SA), isocyclocitral (Givaudan SA, International Flavors & Fragrances, Inc., and the like), tripral (International Flavors & Fragrances, Inc.), and Pollenal II (Kao Corp.), which had been diluted 100 times with propylene glycol, were used for hexanoic acid; florhydral that had been diluted 10 times with propylene glycol was used for nonanoic acid; and florhydral that had been diluted 1000 times with propylene glycol was used for isovaleric acid.
# [3] = biological target: T2, OR51E1 (Homo sapiens, UniProt Q8TCB6); test: Luciferase reporter gene assay, OR51E1 expressed in HEK293 cells; type: cell-based; conditions: for Inhibition ratio of OR51E1 response: response to hexanoic acid, test substance added together with hexanoic acid, HEK293
# T2 construct: expressed in transfected cells; host or cells: HEK293
# T2 sequence (Q8TCB6 1-318): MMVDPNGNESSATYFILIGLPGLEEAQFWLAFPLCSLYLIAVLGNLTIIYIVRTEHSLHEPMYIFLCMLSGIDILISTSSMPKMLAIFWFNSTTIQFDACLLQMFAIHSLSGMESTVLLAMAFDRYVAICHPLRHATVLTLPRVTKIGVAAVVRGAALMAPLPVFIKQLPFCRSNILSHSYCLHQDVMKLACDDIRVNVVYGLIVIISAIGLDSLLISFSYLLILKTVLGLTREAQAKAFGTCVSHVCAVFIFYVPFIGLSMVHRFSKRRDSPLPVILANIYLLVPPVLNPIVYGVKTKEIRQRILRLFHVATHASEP
# Method: as §1, §2, §3, §4, §5
# [4] = biological target: T3, OR51I2 (Homo sapiens, UniProt Q9H344); test: Luciferase reporter gene assay, OR51I2 expressed in HEK293 cells; type: cell-based; conditions: for Inhibition ratio of OR51I2 response: response to hexanoic acid, test substance added together with hexanoic acid, HEK293
# T3 construct: expressed in transfected cells; host or cells: HEK293
# T3 sequence (Q9H344 1-312): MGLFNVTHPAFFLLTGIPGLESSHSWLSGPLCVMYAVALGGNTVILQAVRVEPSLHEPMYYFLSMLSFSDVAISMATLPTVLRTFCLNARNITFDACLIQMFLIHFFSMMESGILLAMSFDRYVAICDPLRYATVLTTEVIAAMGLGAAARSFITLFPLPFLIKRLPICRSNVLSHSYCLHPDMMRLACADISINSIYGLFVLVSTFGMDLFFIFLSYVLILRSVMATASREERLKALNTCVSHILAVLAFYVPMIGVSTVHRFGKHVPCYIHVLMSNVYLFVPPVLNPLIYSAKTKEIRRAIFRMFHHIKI
# Method: as §1, §2, §3, §4, §5
# [5] = biological target: T4, OR51L1 (Homo sapiens, UniProt Q8NGJ5); test: Luciferase reporter gene assay, OR51L1 expressed in HEK293 cells; type: cell-based; conditions: response to hexanoic acid; test substance added together with hexanoic acid; HEK293
# T4 construct: expressed in transfected cells; host or cells: HEK293
# T4 sequence (Q8NGJ5 1-315): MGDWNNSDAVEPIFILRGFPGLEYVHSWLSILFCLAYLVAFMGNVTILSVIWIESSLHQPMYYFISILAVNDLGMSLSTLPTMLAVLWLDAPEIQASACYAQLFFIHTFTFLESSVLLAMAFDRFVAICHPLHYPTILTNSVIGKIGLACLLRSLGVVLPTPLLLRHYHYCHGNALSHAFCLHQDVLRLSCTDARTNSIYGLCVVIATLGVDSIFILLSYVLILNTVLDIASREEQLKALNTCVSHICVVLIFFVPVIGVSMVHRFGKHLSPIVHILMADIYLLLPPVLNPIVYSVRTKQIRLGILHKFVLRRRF
# Method: as §1, §2, §3, §4, §5
# [6] = fold increase of luciferase emission, 1 mM hexanoic acid or 300 μM nonanoic acid, or concentration series up to 1000 μM
Structure (SMILES),Intensity of odor [2],Inhibition of hexanoic acid odor (in words) [2],Inhibition ratio of OR51I2 response [4],also measured
"COc1ccccc1CCC(C)(C)O [4-(2-Methoxyphenyl)-2-methyl-2-butanol, 4-(2-methoxyphenyl)-2-methyl-2-butanol]",3.88,inhibit the hexanoic acid odor,,Inhibition ratio of OR2W1 response [1]: 1 (Inhibition ratio: 50% or higher)
"CC(C)=CCCC(C)CC=O (stereo not shown) [Citronellal, 3,7-dimethyl-6-octenal]",,,,Inhibition ratio of OR51E1 response [3]: 2 (Inhibition ratio: 20% to 50%)
"CC(C=O)Cc1ccc(C(C)(C)C)cc1 (stereo not drawn) [Lilial, p-tert-butyl-α-methylhydrocinnamaldehyde]",,,2 (Inhibition ratio: 20% to 50%),Inhibition ratio of OR2W1 response [1]: 2 (Inhibition ratio: 20% to 50%)
"CC1(C)CCCC2=C1CC(C=O)CC2 (stereo not shown) [Cyclemon A, 1,2,3,4,5,6,7,8-octahydro-8,8-dimethyl-2-naphthalenecarboxyaldehyde]",,,,Inhibition ratio of OR2W1 response [1]: 1 (Inhibition ratio: 50% or higher)
"CC(C)C1CCC(C)(CO)CC1 (stereo not shown) [4-Isopropyl-1-methylcyclohexylmethanol, 4-isopropyl-1-methylcyclohexylmethanol]",,,2 (Inhibition ratio: 20% to 50%),
"CC1=CC(C)C(C=O)CC1 (stereo not shown) [Tripral, 2,4-dimethyl-3-cyclohexane-1-carboxyaldehyde]",2.00,inhibit the hexanoic acid odor,,Inhibition ratio of OR51L1 response [5]: 2 (Inhibition ratio: 20% to 50%)
"Cc1cccc(CC(C)(C)CO)c1 [Majantol, 2,2-dimethyl-3-(3-methylphenyl)propanol]",,,,Inhibition ratio of OR2W1 response [1]: 2 (Inhibition ratio: 20% to 50%)
"CC(C)c1ccc(C=O)cc1 [Cuminaldehyde, 4-isopropylbenzaldehyde]",,,2 (Inhibition ratio: 20% to 50%),
"CC(CC=O)CCCC(C)(C)O (stereo not shown) [Hydroxycitronellal, 3,7-dimethyl-7-hydroxyoctanal]",2.25,inhibit the hexanoic acid odor,2 (Inhibition ratio: 20% to 50%),Inhibition ratio of OR51E1 response [3]: 2 (Inhibition ratio: 20% to 50%); Inhibition ratio of OR51L1 response [5]: 2 (Inhibition ratio: 20% to 50%)
"CC(C)Cc1ccc(CC(C)C=O)cc1 (stereo not shown) [Suzaral, 3-(4-isobutylphenyl)-2-methyl-propionaldehyde]",,,2 (Inhibition ratio: 20% to 50%),
"COC(C)(C)CCCC(C)CC=O (stereo not shown) [Methoxycitronellal, 7-methoxy-3,7-dimethyloctanal]",,,1 (Inhibition ratio: 50% or higher),Inhibition ratio of OR51E1 response [3]: 1 (Inhibition ratio: 50% or higher); Inhibition ratio of OR51L1 response [5]: 1 (Inhibition ratio: 50% or higher)
"CC(C)CC(=O)O [isovaleric acid, reference compound]",,,,"Response of OR51E1 to the odor substance [3, 6]: concentration-dependent response; Response of OR51I2 to the odor substance [4, 6]: concentration-dependent response"
"CC(C)C1CCC(C=O)CC1 (stereo not shown) [4-Isopropylcyclohexanecarbaldehyde, 4-isopropylcyclohexanecarbaldehyde]",2.17,inhibit the hexanoic acid odor,2 (Inhibition ratio: 20% to 50%),
"CC(C=O)Cc1ccc(C(C)C)cc1 (stereo not shown) [Cyclamen aldehyde, 3-(4-isopropylphenyl)-2-methylpropanal]",,,2 (Inhibition ratio: 20% to 50%),
"CC(C=O)C1CCCCC1 (stereo not shown) [Pollenal II, 2-cyclohexylpropanal]",2.08,inhibit the hexanoic acid odor,,Inhibition ratio of OR51E1 response [3]: 2 (Inhibition ratio: 20% to 50%)
